Laboratory results taken from PubChem BioAssay (NCI).
“And” between values parts separate entries of the source, which are not always exact repeats. Identical values can stand only once.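 A five-concentration, 48-hour dose response in 96-well plates underlies each endpoint, interpolated linearly between surrounding concentrations. GI50 is the concentration that inhibits growth by half. The concentration for full growth arrest is given as TGI.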

Legend:
Test in all cases: NCI tumour cell line growth inhibition, 48 h
[1] = system: DMS 114 small cell lung
[2] = system: SNB-78 CNS
[3] = system: M19-MEL melanoma
[4] = system: P388 leukemia
[5] = system: SN12K1 renal
[6] = system: DMS 273 small cell lung
[7] = system: XF 498 CNS
[8] = system: P388/ADR leukemia
[9] = system: DLD-1 colon
[10] = system: KM20L2 colon
[11] = system: LXFL 529 NSCLC

Row | Compound | TGI [1] | TGI [2] [µM] | TGI [3] | TGI [4] | TGI [5] | TGI [6] | TGI [7] | TGI [8] [µM] | TGI [9] | TGI [10] | GI50 [11] | TGI [11] | GI50 [7] [µM] | GI50 [10]
1 | CC(NCCS(=O)(=O)O)C(=O)O (stereo not given) | > 100 µM | > 100 | > 100 µM | > 100 µM | > 100 µM | > 100 µM | > 100 µM | > 100 | > 100 µM | > 100 µM |  |  |  | 
2 | Nc1nc(N)c2ncn(CC(CO)CC(c3ccccc3)P(=O)(O)O)c2n1 (stereo not given) | > 100 µM | > 100 | > 100 µM |  |  | > 100 µM | > 100 µM |  | > 100 µM | > 100 µM | > 100 µM and 13.8 µM | > 100 µM and 99.3 µM |  | 
3 | Cc1c2cc[n+](C)cc2c(C)c2c1[nH]c1ccccc12 | 1.88 µM and 1.99 µM |  | 3.34 µM and 2.32 µM | 24.5 µM and 22.2 µM | 4.3 µM and 4.19 µM | 12.3 µM and 14.2 µM | 5.09 µM and 2.45 µM | > 77.4 | > 100 µM and 76.9 µM | 33.4 µM and 19.9 µM |  |  | 0.856 | 4.95 µM and 2.34 µM
